The subject of this assay is P388 leukemia ip, CD2F1 mice, survival T/C. The experiment in a line: NCI In Vivo Anticancer Drug Screen. Data for tumor model P388 Leukemia (intraperitoneal) in CD2F1 (CDF1) mice. As to conditions: endpoint: median survival time, higher = longer survival. In outline:
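Mice carrying the transplanted tumor received test compound or vehicle. Survival was recorded in each group, and the value is the treated-group measurement divided by that of the vehicle-treated control group.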

Where [1] appears, read: dose: 50.0 mg/kg/injection, schedule: Q01DX009 (ip), vehicle: saline with Tween-80.
Where [2] appears, read: dose: 50.0 mg/kg/injection, schedule: Q04DX003 (ip), vehicle: saline.
The mark [3] stands for this setting: dose: 100.0 mg/kg/injection, schedule: Q04DX003 (ip), vehicle: saline.
Where [4] appears, read: dose: 200.0 mg/kg/injection, schedule: Q04DX003 (ip), vehicle: saline.
Setting [5] is: dose: 50.0 mg/kg/injection, schedule: Q01DX009 (ip), vehicle: Klucel (hydroxypropylcellulose) (HPC).
[6] abbreviates: dose: 100.0 mg/kg/injection, schedule: Q01DX009 (ip), vehicle: Klucel (hydroxypropylcellulose) (HPC).
Where [7] appears, read: dose: 200.0 mg/kg/injection, schedule: Q01DX009 (ip), vehicle: Klucel (hydroxypropylcellulose) (HPC).
[8] abbreviates: dose: 12.5 mg/kg/injection, schedule: Q01DX009 (ip), vehicle: saline with Tween-80.
Setting [9] is: dose: 100.0 mg/kg/injection, schedule: Q01DX001 (ip), vehicle: Klucel (hydroxypropylcellulose) (HPC).
Where [10] appears, read: dose: 200.0 mg/kg/injection, schedule: Q01DX001 (ip), vehicle: Klucel (hydroxypropylcellulose) (HPC).

Values joined by “and” are separate entries in the source; they are usually repeats but may differ in a detail not shown here. Equal entries are not always repeated. Toxic doses and inconclusive results are not listed.

Regarding `COc1ccc(C(C)c2cc3c(cc2OC)OCO3)cc1` (stereo not drawn), the T/C (dose: 12.5 mg/kg/injection, schedule: Q01DX005 (ip), vehicle: saline with Tween-80) was 101 % of control and 109 % of control and 95 % of control; the T/C (dose: 25.0 mg/kg/injection, schedule: Q01DX005 (ip), vehicle: saline + alcohol) is 92 % of control; the T/C (dose: 50.0 mg/kg/injection, schedule: Q01DX005 (ip), vehicle: saline + alcohol) is 91 % of control; the T/C (dose: 100.0 mg/kg/injection, schedule: Q01DX005 (ip), vehicle: saline + alcohol) is 93 % of control; the T/C (dose: 200.0 mg/kg/injection, schedule: Q01DX005 (ip), vehicle: saline + alcohol) was 106 % of control.

Regarding `CC1(C)N=C(N)N=C(N)N1c1ccc(CCCCc2ccc(S(=O)(=O)F)cc2)cc1`, the T/C (dose: 12.0 mg/kg/injection, schedule: Q01DX009 (ip), vehicle: saline sonified) is 152 % of control; the T/C (dose: 18.0 mg/kg/injection, schedule: Q01DX009 (ip), vehicle: saline sonified) was 152 % of control; the T/C under setting [1] is 95 % of control; the T/C (dose: 50.0 mg/kg/injection, schedule: Q04DX003 (ip), vehicle: saline with Tween-80) is 100 % of control.

In the case of `Clc1cc2[nH]cnc2c(Cl)n1`, the T/C was 102 % of control (dose: 6.25 mg/kg/injection, schedule: Q04DX002 (ip), vehicle: saline); 102 % of control (dose: 12.5 mg/kg/injection, schedule: Q04DX002 (ip), vehicle: saline); 103 % of control (dose: 25.0 mg/kg/injection, schedule: Q04DX002 (ip), vehicle: saline).

For `COC(=O)N/N=C\c1ccc(O)c(OC)c1`, the T/C is 97 % of control under setting [2]; 101 % of control under setting [3]; 97 % of control under setting [4]; 101 % of control (dose: 400.0 mg/kg/injection, schedule: Q04DX003 (ip), vehicle: saline).

For `O=C1NC(=O)C(c2ccccc2)(c2ccccc2)N1S(=O)(=O)c1ccccc1`, the T/C is 100 % of control under setting [5], 108 % of control under setting [6] and 106 % of control under setting [7].

Consider `ClCCN(CCCl)c1ccc(CCCCN2CCCCC2)cc1`, for which the T/C by setting is: (dose: 6.25 mg/kg/injection, schedule: Q01DX009 (ip), vehicle: Klucel (hydroxypropylcellulose) (HPC)) 153 % of control; (dose: 12.5 mg/kg/injection, schedule: Q01DX009 (ip), vehicle: Klucel (hydroxypropylcellulose) (HPC)) 183 % of control.

For the compound `COc1cc2ccnc(-c3nccc4cc(OC)c(OC)cc34)c2cc1OC`, the T/C by setting is: (dose: 100.0 mg/kg/injection, schedule: Q01DX001 (ip), vehicle: saline with Tween-80) 97 % of control; (dose: 200.0 mg/kg/injection, schedule: Q01DX001 (ip), vehicle: saline with Tween-80) 92 % of control; (dose: 400.0 mg/kg/injection, schedule: Q01DX001 (ip), vehicle: saline with Tween-80) 97 % of control.

Take `CC(CN1c2ccccc2Sc2ccccc21)N(C)C` (stereo not drawn): the T/C was 99 % of control (dose: 25.0 mg/kg/injection, schedule: Q01DX001 (ip), vehicle: saline); 101 % of control (dose: 50.0 mg/kg/injection, schedule: Q01DX001 (ip), vehicle: saline); 95 % of control (dose: 100.0 mg/kg/injection, schedule: Q01DX001 (ip), vehicle: saline).

`CC(=O)N(C)c1ccc(Nc2ccc(Nc3ccc(N(C)C(C)=O)cc3)c3c2C(=O)c2ccccc2C3=O)cc1`: the T/C was 100 % of control (dose: 50.0 mg/kg/injection, schedule: Q01DX005 (ip), vehicle: saline with Tween-80); 100 % of control (dose: 100.0 mg/kg/injection, schedule: Q01DX005 (ip), vehicle: saline with Tween-80); 99 % of control (dose: 200.0 mg/kg/injection, schedule: Q01DX005 (ip), vehicle: saline with Tween-80).

On to `[I][Hg][CH2]C1COCC([CH2][Hg][I])O1.[I][Hg][CH2]C1COCC([CH2][Hg][I])O1` (stereo not drawn), for which the T/C runs as follows: (dose: 3.13 mg/kg/injection, schedule: Q01DX009 (ip), vehicle: saline with Tween-80) 109 % of control; (dose: 3.13 mg/kg/injection, schedule: Q04DX003 (ip), vehicle: saline with Tween-80) 109 % of control; (dose: 6.25 mg/kg/injection, schedule: Q01DX009 (ip), vehicle: saline with Tween-80) 113 % of control; (dose: 6.25 mg/kg/injection, schedule: Q04DX003 (ip), vehicle: saline with Tween-80) 86 % of control; under setting [8], 118 % of control; (dose: 12.5 mg/kg/injection, schedule: Q04DX003 (ip), vehicle: saline with Tween-80) 100 % of control.

`CC1C(=O)C(C)C(c2ccccc2)OC1c1ccccc1` (stereo not drawn): the T/C is, setting by setting: under setting [2], 97 % of control; under setting [3], 100 % of control; under setting [4], 107 % of control.

Consider `O=CC(=O)Cc1ccccc1`, for which the T/C runs as follows: (dose: 50.0 mg/kg/injection, schedule: Q01DX009 (ip), vehicle: saline) 99 % of control and 98 % of control; (dose: 100.0 mg/kg/injection, schedule: Q01DX009 (ip), vehicle: saline) 105 % of control and 98 % of control; (dose: 200.0 mg/kg/injection, schedule: Q01DX009 (ip), vehicle: saline) 100 % of control and 92 % of control; (dose: 400.0 mg/kg/injection, schedule: Q01DX009 (ip), vehicle: saline) 99 % of control and 100 % of control.

`CCN(CC)CCCC(C)NCCCN` (stereo not drawn): the T/C runs as follows: under setting [3], 100 % of control; under setting [4], 90 % of control.

As for `Cc1ccn2ncnc2c1`, the T/C under setting [1] is 101 % of control; the T/C (dose: 100.0 mg/kg/injection, schedule: Q01DX009 (ip), vehicle: saline with Tween-80) is 102 % of control; the T/C (dose: 200.0 mg/kg/injection, schedule: Q01DX009 (ip), vehicle: saline with Tween-80) is 91 % of control.

In the case of `CP1(=S)C=C(N2CCOCC2)CC1` (stereo not drawn), the T/C under setting [5] was 100 % of control, the T/C under setting [6] is 100 % of control and the T/C under setting [7] is 86 % of control.

With `O=c1c(N=Nc2ccc(Br)cc2)c(O)n(-c2ccccc2Cl)c(=S)n1-c1ccccc1`, the T/C is 94 % of control (dose: 50.0 mg/kg/injection, schedule: Q01DX001 (ip), vehicle: Klucel (hydroxypropylcellulose) (HPC)); 98 % of control under setting [9]; 94 % of control under setting [10].

In the case of `CC(C)=CCc1c(O)ccc(C(=O)[C@H]2C(c3ccc(O)cc3O)CC(C)=C[C@@H]2c2c(O)cc(O)c3c(=O)c(CC=C(C)C)c(-c4ccc(O)cc4O)oc23)c1O` (stereo partly drawn), the T/C (dose: 7.5 mg/kg/injection, schedule: Q01DX005 (ip), vehicle: Klucel (hydroxypropylcellulose) (HPC)) is 92 % of control; the T/C (dose: 15.0 mg/kg/injection, schedule: Q01DX005 (ip), vehicle: Klucel (hydroxypropylcellulose) (HPC)) was 97 % of control; the T/C (dose: 30.0 mg/kg/injection, schedule: Q01DX005 (ip), vehicle: Klucel (hydroxypropylcellulose) (HPC)) is 93 % of control; the T/C (dose: 60.0 mg/kg/injection, schedule: Q01DX005 (ip), vehicle: Klucel (hydroxypropylcellulose) (HPC)) was 108 % of control; the T/C (dose: 120.0 mg/kg/injection, schedule: Q01DX005 (ip), vehicle: Klucel (hydroxypropylcellulose) (HPC)) was 92 % of control.

Take `O=C1CSc2c(ccc3c4c([nH]c23)C(=O)CCC4)N1`: the T/C is 99 % of control under setting [9]; 90 % of control under setting [10]; 97 % of control (dose: 400.0 mg/kg/injection, schedule: Q01DX001 (ip), vehicle: Klucel (hydroxypropylcellulose) (HPC)).

On to `O=[N+]([O-])c1ccccc1O`, for which the T/C was 109 % of control under setting [8]; 113 % of control (dose: 25.0 mg/kg/injection, schedule: Q01DX009 (ip), vehicle: saline with Tween-80); 109 % of control under setting [1]; 105 % of control (dose: 100.0 mg/kg/injection, schedule: Q04DX003 (ip), vehicle: saline with Tween-80); 110 % of control (dose: 200.0 mg/kg/injection, schedule: Q04DX003 (ip), vehicle: saline with Tween-80); 105 % of control (dose: 400.0 mg/kg/injection, schedule: Q04DX003 (ip), vehicle: saline with Tween-80).

(Values after PubChem BioAssay AID330 (DTP/NCI, 2004).)
